Measurements from patent publication US20220249458A1, “Agonists Of Adiponectin” (BAYER AKTIENGESELLSCHAFT, priority 2019, published 2022).
Like-named read-outs stand apart in the source and are kept apart here.

Experiments:
StAR mRNA in Y-1 cells = assay: StAR mRNA induction by ACTH in adrenal cell line Y-1; format: cell-based, mouse
Method: (§1) Y-1 cells (epithelial cells of mouse adrenal gland origin) were cultivated in F12-K medium with 10% FBS and 15% donor horse serum. Cells were treated with 10 nM ACTH, and 30 min later the Adipor1/2 agonist AdipoRon was added in a final concentration of 0.1 μM, 1 μM, 10 μM for two and a half hours. Cells were harvested, mRNA isolated and […] and Star mRNA quantified relative to β-actin (Actb) mRNA. Hatched column: vehicle control, grey column: 10 nM ACTH, white columns: 10 nM ACTH+0.1 μM, 1 μM, or 10 μM AdipoRon.
(§2) ACTH is a hormone of the Hypothalamic-pituitary-adrenal axis and stimulates the expression of Steroidogenic acute regulatory protein (StAR) and […] ([…]), which then can lead to cortisol production and, as a consequence, insulin resistance. Insulin insensitivity is observed in women diagnosed with PCOS. […] EC50 for AdipoRon for this effect is around 10 μM for StAR, and around 0.1 to 1 μM for Cyp11b1, but seems to be saturated at higher concentrations.

tgLH mice = assay: Oral glucose tolerance test in transgenic mice overexpressing LH (tgLH); format: in vivo; conditions: 100 mg/kg/d for four weeks, 2 g/kg glucose after 6 h fasting
Method: 9A: Plasma insulin concentration [mg/L] in wt-mice (light grey column) and untreated tgLH mice (dark grey column) or tgLH mice treated with 100 mg/kg Adiporon (black column) is shown. 9B: Insulin concentrations [ng/mL] during OGTT in wt (left diagram) and Adipor1−/−Adipor2−/−tg mice (right diagram) treated with vehicle (open circle) or treated with 100 mg/kg (circle) are shown.
Increased LH secretion is causal for the development of PCOS in women, and tgLH overexpression in mice recapitulates the human PCOS phenotype in women. For this experiment, an oral glucose tolerance test was performed in control, transgenic LH overexpressing mice, and tgLH mice treated with Adiporon at 100 mg/kg/d for four weeks. To determine insulin sensitivity, plasma was taken at 15 min after giving an oral glucose gavage of 2 g/kg after fasting of the mice for 6 h in the last two days of the experiment (Andrikopoulos et al. 2008).

[1] = tested on: steroid synthesis in db/db mice; assay: Plasma AUC of testosterone and progesterone in female db/db mice; format: in vivo; conditions: single po dose 50 and 100 mg/kg, significant at 100 mg/kg (p<0.1)
Method: Female db/db mice, which were untreated, or treated with Adiporon at 50 mg/kg and 100 mg/kg with a single po dose, were analysed. Blood was taken at 0.5, 1, 2, 4, and 24 hours, and plasma concentrations of progesterone (ibl/Tecan Order No RE52231, Hamburg) and testosterone (Demeditec Order No DEV9911, Kiel) were determined by commercial ELISAs. Area under the curve (AUC) of total steroids was determined by an algorithm according to Gagnon et al. (1998) by GraphPadPrism software. […] The effects are significant at the higher dosage of AdipoRon of 100 mg/kg after a single application (* t-test AUC versus 100 mg/kg Adiporon (n=5 time points), double sided; p<0.1).

[2] = tested on: wt and Adipor1−/−Adipor2−/− mice; conditions: FIG. 9B, cited from earlier work
Cyp17a1 mRNA = Cyp17a1 mRNA expression in ovaries of db/db mice; format: in vivo; conditions: 50 mg/kg single po dose, 0.5-24 h
Method: (§3) FIGS. 6A and 6B Lhcgr mRNA expression (6A) and Cyp17a1 mRNA expression (6B) in ovaries of untreated db/db mice (black column) or db/db mice treated with 50 mg/kg Adiporon (grey column) is shown (n=3 biological replicates; error bars show SD). Expression of Cyp17a1 and Lhrgr mRNA in ovaries of adult female db/db mice were analyzed for untreated mice or mice treated with 50 mg/kg Adiporon as a single po dose given at t=0 h. At 0.5 h, 1 h, 2 h, 4 h, 24 h, mice were killed, and ovaries were taken, mRNA isolated (Qiagen, RNeasy Mini kit #74106) and mRNA quantified by Q-PCR (ThermoFisher Scientific Assay on demand #Mm00484040_ml for Cyp17a1 and Mm00442931_ml for Lhcgr).

Lhcgr mRNA = Lhcgr mRNA expression in ovaries of db/db mice; format: in vivo; conditions: 50 mg/kg single po dose, 0.5-24 h
Method: as §3

LH = LH concentration in plasma of female rats at proestrous; format: in vivo, rat; conditions: female Han-Wistar rats, 50 or 100 mg/kg twice a day for one estrous cycle, d3 proestrous 7 pm
Source text: For this, the cycle phase of untreated naive female Han-Wistar rats was staged by vaginal smears. Rat plasma was taken at different days and time points of the cycle (d3=proestrous, d4=estrous), and LH in plasma determined by a rat pituitary magnetic bead panel (Milliplex, Cat No RPTMAG-86K). LH peak could be detected at d3 at 7 pm in the afternoon as described previously (Smith et al. 1975). Thus, this time point is well suited for measurement of the effect of AdipoR1 and/or AdipoR2 receptors activation by AdipoRon. […] For this, the cycle phase of untreated naive female Han-Wistar rats was staged by vaginal smears. Rats were treated for one estrous cycle, beginning with metestrous, with 50 mg/kg or 100 mg/kg of Adiporon in a suitable vehicle twice a day. Rat plasma was taken at d3=proestrous at 7 pm, and LH was determined by a rat pituitary magnetic bead panel (Milliplex Cat No RPTMAG-86K).

[3] = tested on: DHEA-induced PCOS Model in rats; assay: DHEA-induced PCOS Model in rats; format: in vivo, rat; conditions: 60 mg/kg/d DHEA sc 20 days, 50 mg/kg/d Adiporon last 10 days
Source text: FIG. 8: Plasma testosterone concentration [nM] […] An autostimulation of adiponectin by stimulation of AdipoR1 and/or AdipoR2 has been described before and validates the activity of AdipoRon on the AdipoR1 and/or AdipoR2 receptors (Jardé et al. 2009).

[4] = Single dose exposure experiment in db/db mice (unbound plasma concentration, LC/MS); format: in vivo; conditions: 100 mg/kg p.o. single dose, adult female db/db mice, 0.5 h, 1 h, 4 h
Method: At t=0, a dose of 50 mg/kg (circle) or 100 mg/kg (squares) was given p.o. to adult female db/db mice. At each time point (0.5 h, 1 h, and 4 h) three mice were killed and the plasma concentration of unbound AdipoRon was determined by LC/MS.

[5] = tested on: Cyp11b1 mRNA in Y-1 cells; assay: Cyp11b1 mRNA induction by ACTH in adrenal cell line Y-1; format: cell-based, mouse; conditions: for EC50: Mus musculus
Method: as §1, §2

[6] = molecular target: T1, adiponectin receptor 2 (AdipoR2) (Homo sapiens, UniProt Q86V24); conditions: Dib et al. 2017; cited from earlier work
T1 sequence (Q86V24 1-386): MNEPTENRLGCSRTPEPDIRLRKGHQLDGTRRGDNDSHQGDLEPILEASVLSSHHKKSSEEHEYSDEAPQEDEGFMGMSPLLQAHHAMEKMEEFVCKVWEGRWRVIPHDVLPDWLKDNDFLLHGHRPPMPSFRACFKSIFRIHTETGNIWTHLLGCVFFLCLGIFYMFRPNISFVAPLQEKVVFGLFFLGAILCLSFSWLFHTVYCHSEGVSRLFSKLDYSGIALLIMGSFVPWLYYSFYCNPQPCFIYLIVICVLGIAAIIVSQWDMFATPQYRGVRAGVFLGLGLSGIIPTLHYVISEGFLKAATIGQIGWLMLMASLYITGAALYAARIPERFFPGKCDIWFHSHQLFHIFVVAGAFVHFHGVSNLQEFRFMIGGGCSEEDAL

[7] = molecular target: T2, adiponectin receptor 1 (AdipoR1) (Homo sapiens, UniProt Q96A54); conditions: Dib et al. 2017; cited from earlier work
T2 sequence (Q96A54 1-375): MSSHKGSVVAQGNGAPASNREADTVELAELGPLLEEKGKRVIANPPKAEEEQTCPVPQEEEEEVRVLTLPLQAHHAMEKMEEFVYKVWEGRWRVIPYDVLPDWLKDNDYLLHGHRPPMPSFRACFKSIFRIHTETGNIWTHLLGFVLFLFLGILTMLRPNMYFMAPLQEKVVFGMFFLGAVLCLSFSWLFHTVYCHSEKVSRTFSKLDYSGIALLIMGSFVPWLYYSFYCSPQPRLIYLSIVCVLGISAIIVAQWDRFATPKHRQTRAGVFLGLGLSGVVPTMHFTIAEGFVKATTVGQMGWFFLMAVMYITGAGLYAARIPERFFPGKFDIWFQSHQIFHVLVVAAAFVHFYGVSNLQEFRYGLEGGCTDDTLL

| SMILES | effect on induction of StAR mRNA by ACTH (StAR mRNA in Y-1 cells; 10 nM ACTH + 0.1, 1 or 10 μM) | EC50 (StAR mRNA in Y-1 cells; Mus musculus, 10 nM ACTH, AdipoRon two and a half hours, FIG. 2A, read-out: EC50 for reduction of the induction of StAR by ACTH) | insulin sensitivity (plasma insulin 15 min after oral glucose) (tgLH mice) | plasma AUC of progesterone [1] | plasma AUC of testosterone [1] | Insulin concentrations during OGTT, Adipor1−/−Adipor2−/− mice ([2]; mice double negative for Adiponectin Receptors 1 and 2, 100 mg/kg) | Insulin concentrations during OGTT, wild-type mice ([2]; wt mice, 100 mg/kg) | Cyp17a1 mRNA expression in ovaries (Cyp17a1 mRNA) | Lhcgr (LH receptor) mRNA expression in ovaries (Lhcgr mRNA) | LH concentration in plasma (LH) | plasma adiponectin concentration [3] | Plasma testosterone concentration ([3]; p<0.05) | plasma concentration of unbound AdipoRon versus EC50 [4] | EC50 ([5]; Y-1 cell, as restated for FIG. 5 (see FIG. 2), read-out: EC50 value for effects in Y-1 cell) | EC50 ([5]; Y-1 cells, 10 nM ACTH, AdipoRon two and a half hours, FIG. 2B, seems saturated at higher concentrations, read-out: EC50 for reduction of the induction of Cyp11b1 by ACTH) | effect on induction of Cyp11b1 mRNA by ACTH ([5]; Y-1 cells, 10 nM ACTH + 0.1, 1 or 10 μM) | binding to AdipoR2 [6] | binding to AdipoR1 [7] |
| --- | --- | --- | --- | --- | --- | --- | --- | --- | --- | --- | --- | --- | --- | --- | --- | --- | --- | --- |
| O=C(COc1ccc(C(=O)c2ccccc2)cc1)NC1CCN(Cc2ccccc2)CC1 [AdipoRon, 2-(4-Benzoylphenoxy)-N-(1-benzylpiperidin-4-yl)acetamide] | dose-dependently reduces the induction | ~10000 nM | insulin sensitivity is increased | increases Progesterone plasma concentration | reduces Testosterone plasma concentration | no effect on plasma insulin | comparable data | decreases the expression | decreases the expression | dose-dependently reduces the induction of LH | normalizes plasma adiponectin | significantly reduces the increase in Testosterone | reaches the EC50 value | ~100 nM | 100 to 1000 nM | dose-dependently reduces the induction | – | – |
| COc1ccc(CN2CCN(C(=O)CCNC(=O)c3ccc(C(C)(C)C)cc3)CC2)cc1 [Compound 112254, 4-(tert-Butyl)-N-(3-(4-(4-methoxybenzyl)piperazin-1-yl)-3-oxopropyl)benzamide] | – | – | – | – | – | – | – | – | – | – | – | – | – | – | – | – | binds to AdipoR1 and AdipoR2 | binds to AdipoR1 and AdipoR2 |
